Experimental data taken from patent US5312622A, “Acaricidal compositions and process for preparing same” (Richter Gedeon Vegyeszeti Gyar Rt., priority 1992, dated 1994).

Tests used:
Varroa jacobsoni = test: Treatment of Varroa jacobsoni-infected bee families in hives, number of perished mites (Example 38); assay type: in vivo, Varroa jacobsoni mites on Apis mellifera
Protocol: Three families of bees, being present in good condition on nine frames, were infected with `Varroa jacobsoni` to a medium extent, then treated three times, on every third day with the cell-free fermentation broth prepared as described in Example 8 a). Each time, 60 ml of the cell-free fermentation broth prepared as described in Example 8 a) was evenly sprayed by using an airpump spraying device on the honeycomb surfaces and the bees swarming on such surfaces. In addition, each bee family was exposed to the effect of a smoking strip containing 30 mg of amitrase active agent (ANTIVAR for veterinary use) on the third day after the last treatment.
Three other bee families used as control were treated only with ANTIVAR (30 mg of amitrase) in the periods of treatments by the fermentation broth prepared in Example 8 a). Then the number of perished mites and bees inside the hive was counted and registered. Also, the general condition and behavior of the families and the queen-bee were observed.
A tray made of aluminum and provided with a 5 mm high folded rim was placed on the floor-plate of the bee-hives. In case of necessity, the tray could be removed or replaced through an appropriately shaped opening made in the plane of the floor-plate, without the need to open the bee-hive itself.
Under the term of "inhabited strip of the honeycomb" we mean the area stretching between two adjacent sections of the honeycomb was meant where at least 70 to 80% of opposite surfaces of the honeycomb were covered by bees.
By each treatment, 60 ml of cell-free undiluted fermentation broth, prepared as described in Example 8a) and kept at room temperature, were sprayed by using a manually operated air-jet device onto the entire surface of nine frames holding three families of bees (i.e. onto a surface of 27 216 cm^2 per family). The bees covered the honeycomb surface quite evenly during the spraying. The smoking strip containing the amitrase active agent (ANTIVAR) used as control was bent in a "V"-form and placed onto the aluminum tray, then lit and pushed inside the bee-hive. The exit opening was kept closed for one hour.
a) The number of perished mites was registered in the 24th, 48th and 72nd hour after treatments.
Number of perished Varroa jacobsoni mites each per bee family after treatments carried out every 3rd day, 3 times altogether by using the cell-free fermentation broth prepared as described in Example 8a) followed by a treatment with amitrase
Number of perished "Varroa jacobsoni" mites each per bee family after treatment in every third day, 4 times altogether by using 30 mg of amitrase per treatment (control)

Apis mellifera = settings: bee; comparison value, no test described; cited from earlier work

Structure (SMILES): Cc1ccc(N=CN(C)C=Nc2ccc(C)cc2C)c(C)c1 [amitrase]
- effect (Varroa jacobsoni; amitrase-treating, as shown in example 38): < 100%
- Number of perished mites (Varroa jacobsoni; control group, 4th amitrase treatment (30 mg), 24 h after treatment, bee family No. 1): 57
- Number of perished mites (Varroa jacobsoni; control group, 4th amitrase treatment (30 mg), 24 h after treatment, bee family No. 2): 55
- Number of perished mites (Varroa jacobsoni; control group, 4th amitrase treatment (30 mg), 24 h after treatment, bee family No. 3): 32
- Number of perished mites (Varroa jacobsoni; control group, 4th amitrase treatment (30 mg), 48 h after treatment, bee family No. 1): 4
- Number of perished mites (Varroa jacobsoni; control group, 4th amitrase treatment (30 mg), 48 h after treatment, bee family No. 2): 0
- Number of perished mites (Varroa jacobsoni; control group, 4th amitrase treatment (30 mg), 48 h after treatment, bee family No. 3): 4
- Number of perished mites (Varroa jacobsoni; control group, 4th amitrase treatment (30 mg), 72 h after treatment, bee family No. 1): 1
- Number of perished mites (Varroa jacobsoni; control group, 4th amitrase treatment (30 mg), 72 h after treatment, bee family No. 2): 0
- Number of perished mites (Varroa jacobsoni; control group, 4th amitrase treatment (30 mg), 72 h after treatment, bee family No. 3): 1
- Number of perished mites, Total (Varroa jacobsoni; control group, 4th amitrase treatment (30 mg), total, bee family No. 1): 62
- Number of perished mites, Total (Varroa jacobsoni; control group, 4th amitrase treatment (30 mg), total, bee family No. 2): 55
- Number of perished mites, Total (Varroa jacobsoni; control group, 4th amitrase treatment (30 mg), total, bee family No. 3): 37
- Number of perished mites (Varroa jacobsoni; treatment 1, 24 h after treatment, bee family No. 1): 164
- Number of perished mites (Varroa jacobsoni; treatment 1, 24 h after treatment, bee family No. 2): 241
- Number of perished mites (Varroa jacobsoni; treatment 1, 24 h after treatment, bee family No. 3): 190
- Number of perished mites (Varroa jacobsoni; treatment 1, 48 h after treatment, bee family No. 1): 3
- Number of perished mites (Varroa jacobsoni; treatment 1, 48 h after treatment, bee family No. 2): 12
- Number of perished mites (Varroa jacobsoni; treatment 1, 48 h after treatment, bee family No. 3): 3
- Number of perished mites (Varroa jacobsoni; treatment 1, 72 h after treatment, bee family No. 1): 0
- Number of perished mites (Varroa jacobsoni; treatment 1, 72 h after treatment, bee family No. 2): 1
- Number of perished mites (Varroa jacobsoni; treatment 1, 72 h after treatment, bee family No. 3): 0
- Number of perished mites, Total (Varroa jacobsoni; treatment 1, total, bee family No. 1): 167
- Number of perished mites, Total (Varroa jacobsoni; treatment 1, total, bee family No. 2): 254
- Number of perished mites, Total (Varroa jacobsoni; treatment 1, total, bee family No. 3): 193
- Number of perished mites (Varroa jacobsoni; treatment 2, 24 h after treatment, bee family No. 1): 68
- Number of perished mites (Varroa jacobsoni; treatment 2, 24 h after treatment, bee family No. 2): 87
- Number of perished mites (Varroa jacobsoni; treatment 2, 24 h after treatment, bee family No. 3): 37
- Number of perished mites (Varroa jacobsoni; treatment 2, 48 h after treatment, bee family No. 1): 0
- Number of perished mites (Varroa jacobsoni; treatment 2, 48 h after treatment, bee family No. 2): 3
- Number of perished mites (Varroa jacobsoni; treatment 2, 48 h after treatment, bee family No. 3): 1
- Number of perished mites (Varroa jacobsoni; treatment 2, 72 h after treatment, bee family No. 1): 0
- Number of perished mites (Varroa jacobsoni; treatment 2, 72 h after treatment, bee family No. 2): 1
- Number of perished mites (Varroa jacobsoni; treatment 2, 72 h after treatment, bee family No. 3): 0
- Number of perished mites, Total (Varroa jacobsoni; treatment 2, total, bee family No. 1): 68
- Number of perished mites, Total (Varroa jacobsoni; treatment 2, total, bee family No. 2): 91
- Number of perished mites, Total (Varroa jacobsoni; treatment 2, total, bee family No. 3): 38
- Number of perished mites (Varroa jacobsoni; treatment 3, 24 h after treatment, bee family No. 1): 21
- Number of perished mites (Varroa jacobsoni; treatment 3, 24 h after treatment, bee family No. 2): 35
- Number of perished mites (Varroa jacobsoni; treatment 3, 24 h after treatment, bee family No. 3): 24
- Number of perished mites (Varroa jacobsoni; treatment 3, 48 h after treatment, bee family No. 1): 0
- Number of perished mites (Varroa jacobsoni; treatment 3, 48 h after treatment, bee family No. 2): 2
- Number of perished mites (Varroa jacobsoni; treatment 3, 48 h after treatment, bee family No. 3): 1
- Number of perished mites (Varroa jacobsoni; treatment 3, 72 h after treatment, bee family No. 1): 0
- Number of perished mites (Varroa jacobsoni; treatment 3, 72 h after treatment, bee family No. 2): 0
- Number of perished mites (Varroa jacobsoni; treatment 3, 72 h after treatment, bee family No. 3): 2
- Number of perished mites, Total (Varroa jacobsoni; treatment 3, total, bee family No. 1): 21
- Number of perished mites, Total (Varroa jacobsoni; treatment 3, total, bee family No. 2): 37
- Number of perished mites, Total (Varroa jacobsoni; treatment 3, total, bee family No. 3): 27
- Number of perished mites (Varroa jacobsoni; treatment 4: amitrase (30 mg) after 3 treatments with Example 8a) broth, 24 h, bee family No. 1): 225
- Number of perished mites (Varroa jacobsoni; treatment 4: amitrase (30 mg) after 3 treatments with Example 8a) broth, 24 h, bee family No. 2): 134
- Number of perished mites (Varroa jacobsoni; treatment 4: amitrase (30 mg) after 3 treatments with Example 8a) broth, 24 h, bee family No. 3): 94
- Number of perished mites (Varroa jacobsoni; treatment 4: amitrase (30 mg) after 3 treatments with Example 8a) broth, 48 h, bee family No. 1): 24
- Number of perished mites (Varroa jacobsoni; treatment 4: amitrase (30 mg) after 3 treatments with Example 8a) broth, 48 h, bee family No. 2): 4
- Number of perished mites (Varroa jacobsoni; treatment 4: amitrase (30 mg) after 3 treatments with Example 8a) broth, 48 h, bee family No. 3): 11
- Number of perished mites (Varroa jacobsoni; treatment 4: amitrase (30 mg) after 3 treatments with Example 8a) broth, 72 h, bee family No. 1): 0
- Number of perished mites (Varroa jacobsoni; treatment 4: amitrase (30 mg) after 3 treatments with Example 8a) broth, 72 h, bee family No. 2): 1
- Number of perished mites (Varroa jacobsoni; treatment 4: amitrase (30 mg) after 3 treatments with Example 8a) broth, 72 h, bee family No. 3): 0
- Number of perished mites, Total (Varroa jacobsoni; treatment 4: amitrase (30 mg) after 3 treatments with Example 8a) broth, total, bee family No. 1): 249
- Number of perished mites, Total (Varroa jacobsoni; treatment 4: amitrase (30 mg) after 3 treatments with Example 8a) broth, total, bee family No. 2): 139
- Number of perished mites, Total (Varroa jacobsoni; treatment 4: amitrase (30 mg) after 3 treatments with Example 8a) broth, total, bee family No. 3): 105
- LD50 (Apis mellifera): 12 microgram/bee
